This note sets out measurements from ChEMBL document CHEMBL1201862, “PubChem BioAssay data set” (2004).

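In this assay, cells in 96-well plates receive the compound at five concentrations for 48 hours. Endpoints are linearly interpolated between the surrounding concentrations. GI50 is the concentration that inhibits growth by half.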 Calls of active or inactive are those of the source. Cut-off read from the data, not from the text of the source: active = GI50 up to about 1.1 µM and inactive = higher. A value given as a limit tells only on which side of the number the result lay.

Experiment in all cases: NCI-60 cell line screen, 48 h
For test [1], the system named is U-251.
In test [2] the test system is A549.
The test system of test [3] is SNB-19.
Test [4] relates to EKVX.
In test [5] the test system is HOP-62.
The subject of test [6] is SF-268.
Test [7] deals with A498.
Test [8] concerns HT-29.
The test system of test [9] is Hs-578T.
In test [10] the test system is HCT-15.
Test [11] relates to RXF 393.
In test [12] the test system is MDA-N.
Test [13] concerns SF-539.
Test [14] concerns Malme-3M.
Test [15] concerns PC-3.
In test [16] the test system is IGROV-1.
For test [17], the system named is OVCAR-8.
In test [18] the test system is NCI-H23.
Test [19] concerns NCI-H522.
Test [20] has as its system SNB-75.

For the molecule `COc1ccc(C[n+]2cccc(O)c2)cc1`, the GI50 in [1], in test [2], in [3], in [4], in [5] and in test [6] was > 100 µM (inactive) throughout. For the same molecule, the GI50 is > 100 µM (inactive) in test [7]; > 100 µM (inactive) in test [8]; > 100 µM (inactive) in test [9]; > 10 µM in test [10]; > 100 µM (inactive) in test [11]; > 100 µM (inactive) in [12]. For the same molecule, the GI50 in test [13], in test [14], in test [15], in [16], in test [17] and in test [18] was > 100 µM (inactive) throughout.

Regarding `O=C1CC(c2ccc([N+](=O)[O-])cc2)C2(C(=O)NC(=S)NC2=O)C(c2ccc([N+](=O)[O-])cc2)C1` (configuration not stated), the GI50 in test [19] is 18.9 µM (inactive); in test [1], 18.7 µM (inactive); in test [2] it was 19.6 µM (inactive); in test [3], 17.5 µM (inactive); in test [20], > 100 µM (inactive); in [4] it was 32.7 µM (inactive). In addition, the GI50 is 23.8 µM (inactive) in [5]; 21.4 µM (inactive) in [6]; 32.4 µM (inactive) in test [7]; 59.8 µM (inactive) in test [8]; 25.8 µM (inactive) in test [9]; 18.9 µM in test [10]. For the same molecule, the GI50 in test [12] was 31.4 µM (inactive); in test [13], 33.7 µM (inactive); in [14] it was 12.2 µM (inactive); in test [15] it was 30.5 µM (inactive); in [16], 16.3 µM (inactive); in [17], 19.3 µM (inactive). Moreover, the GI50 in [18] is 22.1 µM (inactive).

Consider `C=CCc1ccccc1C1CC2(C(=O)OC)OC1C(C(=O)OC)=C2C(=O)OC` (configuration not stated), for which the GI50 in test [1], in test [2], in [3], in test [4], in [5] and in [6] was > 10 µM (inactive) each time. The GI50 was > 10 µM (inactive) in test [7]; > 10 µM (inactive) in [8]; > 10 µM (inactive) in test [9]; > 10 µM in [10]; > 10 µM (inactive) in [11]; > 10 µM (inactive) in test [12]. The GI50 in [13], in test [14], in test [15], in test [16], in [17] and in test [18] was > 10 µM (inactive) each time.

As to `CC1=CC2=C(C(N)=O)C(=O)OC2(C)C(c2ccccc2)C1` (configuration not stated), the GI50 in [19] is > 100 µM (inactive); in [1], > 100 µM (inactive); in test [2] it was > 100 µM (inactive); in test [3], > 100 µM (inactive); in test [20] it was 3.03 µM (inactive); in test [4], > 100 µM (inactive). Moreover, the GI50 was > 100 µM (inactive) in test [5]; > 100 µM (inactive) in test [6]; > 100 µM (inactive) in [7]; > 100 µM (inactive) in test [8]; > 100 µM (inactive) in test [9]; > 100 µM in test [10]. Besides, the GI50 in test [12], in test [13], in test [14], in test [15], in test [16] and in test [17] was > 100 µM (inactive) throughout.

On to `O=c1oc2ccc([N+](=O)[O-])cc2c(Nc2ccc3c(c2)Sc2ccccc2O3)c1[N+](=O)[O-]`, for which the GI50 in [19] is 17.6 µM (inactive); in test [1], 17.5 µM (inactive); in test [2], 24.9 µM (inactive); in [3] it was 17.9 µM (inactive); in test [20], 39.6 µM (inactive); in [4], 25.9 µM (inactive). Also, the GI50 in test [5] was 21.3 µM (inactive); in [6], 27.5 µM (inactive); in [8], 27.2 µM (inactive); in test [9], 37 µM (inactive); in test [10], 17.7 µM; in test [11], 22.4 µM (inactive). Further, the GI50 in test [12] was 28.6 µM (inactive); in [13], 19.8 µM (inactive); in test [14], 30.7 µM (inactive); in [15] it was 19.5 µM (inactive); in test [16], 21.6 µM (inactive); in [17], 25.3 µM (inactive). Besides, in test [18], the GI50 was 18.6 µM (inactive).

`COc1c(C)c(C/C=C(\C)CC/C=C(\C)CC/C=C(\C)CC/C=C(\C)CCC=C(C)C)c(OC)c(OC)c1OC`: the GI50 was 16 µM (inactive) in [19]; 79.6 µM (inactive) in [1]; 17.6 µM (inactive) in test [2]; > 100 µM (inactive) in [3]; 43 µM (inactive) in test [20]; 44.4 µM (inactive) in [4]. Besides, the GI50 in [5] is 15.6 µM (inactive); in test [6] it was 18.6 µM (inactive); in test [8], 88.3 µM (inactive); in test [9], > 100 µM (inactive); in test [10] it was 92 µM; in test [11], 17.4 µM (inactive). In addition, the GI50 in test [12] was 31.4 µM (inactive); in test [13], > 100 µM (inactive); in [15] it was 52.8 µM (inactive); in test [16], 26.9 µM (inactive); in test [17] it was 18.4 µM (inactive); in test [18], 17.6 µM (inactive).

`CSc1ccc(C(=O)C(=O)c2ccc(SC)s2)s1`: the GI50 in test [19], in [1], in [2], in test [3], in test [20] and in [4] was > 10 µM (inactive) throughout. For the same molecule, the GI50 is 3.93 µM (inactive) in test [5]; > 10 µM (inactive) in test [6]; > 10 µM (inactive) in [8]; 3.46 µM (inactive) in test [9]; > 10 µM in test [10]; > 10 µM (inactive) in test [11]. Moreover, the GI50 was 4.6 µM (inactive) in test [12]; 4.85 µM (inactive) in test [13]; > 10 µM (inactive) in [15]; > 10 µM (inactive) in test [16]; > 10 µM (inactive) in [17]; > 10 µM (inactive) in test [18].

For the molecule `CC1=C(C(=O)OCCc2ccc([N+](=O)[O-])cc2)C(c2ccccc2[N+](=O)[O-])C(C(=O)OC(C)C)=C(C)N1` (configuration not stated), the GI50 was 2.18 µM (inactive) in [19]; 4.73 µM (inactive) in test [1]; 2.96 µM (inactive) in test [2]; 5.61 µM (inactive) in [3]; 4.24 µM (inactive) in test [20]; 2.36 µM (inactive) in [4]. In addition, the GI50 in test [5] was 8.67 µM (inactive); in test [6], 5.55 µM (inactive); in [8], 5.07 µM (inactive); in test [9], 4.38 µM (inactive); in test [10], 4.21 µM; in test [11], 3.22 µM (inactive). In addition, the GI50 is 4.51 µM (inactive) in test [12]; 4.15 µM (inactive) in test [13]; 7.19 µM (inactive) in test [14]; 1.49 µM (inactive) in [15]; 7.05 µM (inactive) in test [16]; 3.66 µM (inactive) in test [17]. Besides, in test [18], the GI50 was 3.97 µM (inactive).

On to `c1ccc(/C(=N/Nc2ccncn2)c2ccccn2)cc1`, for which the GI50 in test [19] is 0.776 µM (active); in [1], 39.6 µM (inactive); in [2], 30.4 µM (inactive); in test [3] it was 46.8 µM (inactive); in test [20] it was 18.9 µM (inactive); in [4], 4.34 µM (inactive). Besides, the GI50 is 31.7 µM (inactive) in test [5]; 15.9 µM (inactive) in test [6]; 0.883 µM (active) in test [8]; 0.0114 µM (active) in test [9]; 24.4 µM in test [10]; 34.3 µM (inactive) in test [11]. The GI50 in test [12] is 58.5 µM (inactive); in test [13], 32.2 µM (inactive); in [15] it was 36.5 µM (inactive); in [16] it was 17 µM (inactive); in test [17] it was 16.6 µM (inactive); in [18] it was 17.6 µM (inactive).

Turning to `CC1(C)C(=O)N=C(N)N1C(=O)OCc1ccccc1`, the GI50 in test [19], in test [1], in [2], in [3], in test [20] and in test [4] was > 100 µM (inactive) each time. The GI50 is > 100 µM (inactive) in test [5]; > 100 µM (inactive) in test [6]; > 100 µM (inactive) in test [7]; > 100 µM (inactive) in test [8]; > 100 µM (inactive) in [9]; > 100 µM in [10]. Also, the GI50 in [12], in test [13], in test [14], in [15], in [16] and in test [17] was > 100 µM (inactive) in each case. For the same molecule, the GI50 in test [18] is > 100 µM (inactive).

For the molecule `N#Cc1nc(/C=C/c2nc(C#N)c(N)o2)oc1N`, the GI50 in test [19], in test [2], in test [3], in [20], in test [4] and in test [5] was > 10 µM (inactive) each time. In addition, the GI50 was > 10 µM (inactive) in test [6]; > 10 µM (inactive) in test [8]; > 10 µM (inactive) in test [9]; > 10 µM in test [10]; > 10 µM (inactive) in [11]; > 10 µM (inactive) in test [12]. The GI50 in test [13], in [14], in test [15], in test [16], in test [17] and in test [18] was > 10 µM (inactive) throughout.
